Reference: patent US8192962B2, “Processes for detecting toxic substances” (Daikin Industries, Ltd., priority 2001, dated 2012)

Tested on: Metabolism protein genes
Test: DNA chip mRNA expression in yeast, metabolism protein genes (Table 7)
Type: cell-based, Saccharomyces cerevisiae S288C
Procedure, shortened: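 Chemical exposure: 2 h, log-phase S. cerevisiae S288C, YPD, 25° C., dose set to inhibit growth without death. Profiling: mRNA labeled by reverse transcription with Cy3- or Cy5-dUTP, hybridized to whole-genome array. Output: fluorescence ratio against untreated culture.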

## CN(C)C(=S)SSC(=S)N(C)C [(10), Tetramethylthiuram disulfide]
Yeast gene YJR143C
  level of expressed mRNA in the presence/in the absence of chemical substance: 0.3
Yeast gene YJR148W
  The level of expressed mRNA in the presence of chemical substance/The level of expressed mRNA in the absence of chemical substance: 3.0
Yeast gene YJR155W
  The level of expressed mRNA in the presence of chemical substance/The level of expressed mRNA in the absence of chemical substance: 18.8
Yeast gene YKL001C
  The level of expressed mRNA in the presence of chemical substance/The level of expressed mRNA in the absence of chemical substance: 3.4
Yeast gene YKL035W
  The level of expressed mRNA in the presence of chemical substance/The level of expressed mRNA in the absence of chemical substance: 1.2
Yeast gene YKL060C
  level of expressed mRNA in the presence/in the absence of chemical substance: 0.8
Yeast gene YKL091C
  The level of expressed mRNA in the presence of chemical substance/The level of expressed mRNA in the absence of chemical substance: 3.2
Yeast gene YKL104C
  The level of expressed mRNA in the presence of chemical substance/The level of expressed mRNA in the absence of chemical substance: 1.8
Yeast gene YKL148C
  level of expressed mRNA in the presence/in the absence of chemical substance: 1.7
Yeast gene YKL152C
  The level of expressed mRNA in the presence of chemical substance/The level of expressed mRNA in the absence of chemical substance: 1.5
Yeast gene YKL157W
  level of expressed mRNA in the presence/in the absence of chemical substance: 1.9
Yeast gene YKL213C
  The level of expressed mRNA in the presence of chemical substance/The level of expressed mRNA in the absence of chemical substance: 2.1
Yeast gene YKL215C
  The level of expressed mRNA in the presence of chemical substance/The level of expressed mRNA in the absence of chemical substance: 1.9
Yeast gene YKR034W
  level of expressed mRNA in the presence/in the absence of chemical substance: 0.6
Yeast gene YKR039W
  The level of expressed mRNA in the presence of chemical substance/The level of expressed mRNA in the absence of chemical substance: 2.0
Yeast gene YLL058W
  The level of expressed mRNA in the presence of chemical substance/The level of expressed mRNA in the absence of chemical substance: 3.6
Yeast gene YLR006C
  level of expressed mRNA in the presence/in the absence of chemical substance: 1.1
Yeast gene YLR044C
  level of expressed mRNA in the presence/in the absence of chemical substance: 1.2
Yeast gene YLR056W
  level of expressed mRNA in the presence/in the absence of chemical substance: 0.5
Yeast gene YLR058C
  level of expressed mRNA in the presence/in the absence of chemical substance: 0.1
Yeast gene YLR081W
  level of expressed mRNA in the presence/in the absence of chemical substance: 2.2
Yeast gene YLR089C
  level of expressed mRNA in the presence/in the absence of chemical substance: 0.8
Yeast gene YLR180W
  The level of expressed mRNA in the presence of chemical substance/The level of expressed mRNA in the absence of chemical substance: 0.9
Yeast gene YLR273C
  The level of expressed mRNA in the presence of chemical substance/The level of expressed mRNA in the absence of chemical substance: 2.4
Yeast gene YLR284C
  level of expressed mRNA in the presence/in the absence of chemical substance: 0.9
Yeast gene YLR299W
  The level of expressed mRNA in the presence of chemical substance/The level of expressed mRNA in the absence of chemical substance: 2.3
Yeast gene YLR300W
  The level of expressed mRNA in the presence of chemical substance/The level of expressed mRNA in the absence of chemical substance: 0.5
Yeast gene YLR304C
  level of expressed mRNA in the presence/in the absence of chemical substance: 2.2
Yeast gene YLR307W
  The level of expressed mRNA in the presence of chemical substance/The level of expressed mRNA in the absence of chemical substance: 0.7
Yeast gene YLR348C
  The level of expressed mRNA in the presence of chemical substance/The level of expressed mRNA in the absence of chemical substance: 1.3
Yeast gene YLR354C
  level of expressed mRNA in the presence/in the absence of chemical substance: 0.9
Yeast gene YLR372W
  level of expressed mRNA in the presence/in the absence of chemical substance: 0.1
Yeast gene YML022W
  level of expressed mRNA in the presence/in the absence of chemical substance: 0.6
Yeast gene YML054C
  The level of expressed mRNA in the presence of chemical substance/The level of expressed mRNA in the absence of chemical substance: 1.8
Yeast gene YML070W
  The level of expressed mRNA in the presence of chemical substance/The level of expressed mRNA in the absence of chemical substance: 3.9
Yeast gene YML100W
  The level of expressed mRNA in the presence of chemical substance/The level of expressed mRNA in the absence of chemical substance: 1.4
Yeast gene YMR008C
  The level of expressed mRNA in the presence of chemical substance/The level of expressed mRNA in the absence of chemical substance: 0.6
Yeast gene YMR011W
  level of expressed mRNA in the presence/in the absence of chemical substance: 0.7
Yeast gene YMR015C
  level of expressed mRNA in the presence/in the absence of chemical substance: 0.3
Yeast gene YMR020W
  The level of expressed mRNA in the presence of chemical substance/The level of expressed mRNA in the absence of chemical substance: 2.9
Yeast gene YMR083W
  level of expressed mRNA in the presence/in the absence of chemical substance: 1.1
Yeast gene YMR105C
  The level of expressed mRNA in the presence of chemical substance/The level of expressed mRNA in the absence of chemical substance: 2.9
Yeast gene YMR189W
  The level of expressed mRNA in the presence of chemical substance/The level of expressed mRNA in the absence of chemical substance: 0.9
Yeast gene YMR205C
  level of expressed mRNA in the presence/in the absence of chemical substance: 0.8
Yeast gene YMR261C
  level of expressed mRNA in the presence/in the absence of chemical substance: 1.3
Yeast gene YMR271C
  The level of expressed mRNA in the presence of chemical substance/The level of expressed mRNA in the absence of chemical substance: 4.4
Yeast gene YMR296C
  The level of expressed mRNA in the presence of chemical substance/The level of expressed mRNA in the absence of chemical substance: 0.6
Yeast gene YMR323W
  level of expressed mRNA in the presence/in the absence of chemical substance: 1.3
Yeast gene YNL012W
  The level of expressed mRNA in the presence of chemical substance/The level of expressed mRNA in the absence of chemical substance: 3.2
Yeast gene YNL025C
  level of expressed mRNA in the presence/in the absence of chemical substance: 1.8
Yeast gene YNL037C
  The level of expressed mRNA in the presence of chemical substance/The level of expressed mRNA in the absence of chemical substance: 3.2
Yeast gene YNL045W
  The level of expressed mRNA in the presence of chemical substance/The level of expressed mRNA in the absence of chemical substance: 1.1
Yeast gene YNL104C
  The level of expressed mRNA in the presence of chemical substance/The level of expressed mRNA in the absence of chemical substance: 2.0
Yeast gene YNL106C
  The level of expressed mRNA in the presence of chemical substance/The level of expressed mRNA in the absence of chemical substance: 1.4
Yeast gene YNL169C
  The level of expressed mRNA in the presence of chemical substance/The level of expressed mRNA in the absence of chemical substance: 1.1
Yeast gene YNL192W
  level of expressed mRNA in the presence/in the absence of chemical substance: 1.8
Yeast gene YNL231C
  The level of expressed mRNA in the presence of chemical substance/The level of expressed mRNA in the absence of chemical substance: 1.3
Yeast gene YNL322C
  The level of expressed mRNA in the presence of chemical substance/The level of expressed mRNA in the absence of chemical substance: 0.8
Yeast gene YNL331C
  The level of expressed mRNA in the presence of chemical substance/The level of expressed mRNA in the absence of chemical substance: 36.3
Yeast gene YNL332W
  The level of expressed mRNA in the presence of chemical substance/The level of expressed mRNA in the absence of chemical substance: 2.1
Yeast gene YNR002C
  The level of expressed mRNA in the presence of chemical substance/The level of expressed mRNA in the absence of chemical substance: 1.6
Yeast gene YNR019W
  The level of expressed mRNA in the presence of chemical substance/The level of expressed mRNA in the absence of chemical substance: 1.9
Yeast gene YNR033W
  The level of expressed mRNA in the presence of chemical substance/The level of expressed mRNA in the absence of chemical substance: 4.2
Yeast gene YNR059W
  The level of expressed mRNA in the presence of chemical substance/The level of expressed mRNA in the absence of chemical substance: 1.4
Yeast gene YOL058W
  The level of expressed mRNA in the presence of chemical substance/The level of expressed mRNA in the absence of chemical substance: 15.7
Yeast gene YOL086C
  level of expressed mRNA in the presence/in the absence of chemical substance: 1.2
Yeast gene YOL108C
  level of expressed mRNA in the presence/in the absence of chemical substance: 0.9
Yeast gene YOL116W
  level of expressed mRNA in the presence/in the absence of chemical substance: 1.8
Yeast gene YOL126C
  The level of expressed mRNA in the presence of chemical substance/The level of expressed mRNA in the absence of chemical substance: 2.4
Yeast gene YOL143C
  The level of expressed mRNA in the presence of chemical substance/The level of expressed mRNA in the absence of chemical substance: 1.0
Yeast gene YOL153C
  The level of expressed mRNA in the presence of chemical substance/The level of expressed mRNA in the absence of chemical substance: 3.2
Yeast gene YOL156W
  level of expressed mRNA in the presence/in the absence of chemical substance: 2.1
Yeast gene YOL165C
  The level of expressed mRNA in the presence of chemical substance/The level of expressed mRNA in the absence of chemical substance: 23.3
Yeast gene YOR002W
  level of expressed mRNA in the presence/in the absence of chemical substance: 0.9
Yeast gene YOR085W
  level of expressed mRNA in the presence/in the absence of chemical substance: 0.6
Yeast gene YOR099W
  The level of expressed mRNA in the presence of chemical substance/The level of expressed mRNA in the absence of chemical substance: 0.7
Yeast gene YOR103C
  level of expressed mRNA in the presence/in the absence of chemical substance: 0.9
Yeast gene YOR108W
  level of expressed mRNA in the presence/in the absence of chemical substance: 1.1
Yeast gene YOR128C
  level of expressed mRNA in the presence/in the absence of chemical substance: 0.4
Yeast gene YOR130C
  The level of expressed mRNA in the presence of chemical substance/The level of expressed mRNA in the absence of chemical substance: 1.7
Yeast gene YOR136W
  The level of expressed mRNA in the presence of chemical substance/The level of expressed mRNA in the absence of chemical substance: 3.4
Yeast gene YOR142W
  level of expressed mRNA in the presence/in the absence of chemical substance: 1.5
Yeast gene YOR176W
  level of expressed mRNA in the presence/in the absence of chemical substance: 0.5
Yeast gene YOR178C
  level of expressed mRNA in the presence/in the absence of chemical substance: 1.7
Yeast gene YOR221C
  The level of expressed mRNA in the presence of chemical substance/The level of expressed mRNA in the absence of chemical substance: 1.7
Yeast gene YOR226C
  The level of expressed mRNA in the presence of chemical substance/The level of expressed mRNA in the absence of chemical substance: 5.9
Yeast gene YOR251C
  level of expressed mRNA in the presence/in the absence of chemical substance: 0.8
Yeast gene YOR336W
  The level of expressed mRNA in the presence of chemical substance/The level of expressed mRNA in the absence of chemical substance: 1.5
Yeast gene YOR347C
  The level of expressed mRNA in the presence of chemical substance/The level of expressed mRNA in the absence of chemical substance: 0.9
Yeast gene YOR348C
  level of expressed mRNA in the presence/in the absence of chemical substance: 0.4
Yeast gene YPL017C
  The level of expressed mRNA in the presence of chemical substance/The level of expressed mRNA in the absence of chemical substance: 6.7
Yeast gene YPL028W
  level of expressed mRNA in the presence/in the absence of chemical substance: 0.8
Yeast gene YPL057C
  level of expressed mRNA in the presence/in the absence of chemical substance: 1.4
Yeast gene YPL135W
  level of expressed mRNA in the presence/in the absence of chemical substance: 2.8
Yeast gene YPL148C
  level of expressed mRNA in the presence/in the absence of chemical substance: 1.5
Yeast gene YPR026W
  The level of expressed mRNA in the presence of chemical substance/The level of expressed mRNA in the absence of chemical substance: 3.1
Yeast gene YPR113W
  level of expressed mRNA in the presence/in the absence of chemical substance: 0.8
Yeast gene YPR165W
  level of expressed mRNA in the presence/in the absence of chemical substance: 0.7
Yeast gene YPR167C
  The level of expressed mRNA in the presence of chemical substance/The level of expressed mRNA in the absence of chemical substance: 9.0
Yeast gene YPR183W
  level of expressed mRNA in the presence/in the absence of chemical substance: 0.6
